Measurements reported in PubChem BioAssay AID1918993 (Molecular Pharmacology Branch, DTP, NCI, 2023).
“And” between values parts separate entries of the source, which are not always exact repeats. Equal values may be shown once. One block for each compound: values may come before it.

Test system: 233499-124-R-J3-PDC complex spheroid growth
Assay: Anticancer human tumor 233499-124-R-J3-PDC patient-derived colon adenocarcinoma cell line growth inhibition [AhR]
Details: for viability, T/C: stronger effect = lower value
How it was run: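 Agents were dosed in half-log steps down from roughly clinical Cmax, or from 10 microM where Cmax was unknown, alone and with AhR antagonists. Read-out: percent test/control growth of tumor spheroids containing HUVEC and MSC stromal cells.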

[1] = curve of first compound, second compound 0.1 µM
[2] = curve of first compound, second compound 0.316 µM
[3] = curve of first compound, second compound 1 µM
[4] = curve of first compound, second compound 3.16 µM
[5] = curve of first compound, second compound 10 µM
[6] = second compound 0.1 µM, first compound 0.00949 µM
[7] = second compound 0.1 µM, first compound 0.03 µM
[8] = second compound 0.1 µM, first compound 0.0949 µM
[9] = second compound 0.1 µM, first compound 0.3 µM
[10] = second compound 0.1 µM, first compound 0.949 µM
[11] = second compound 0.1 µM, first compound 3 µM
[12] = second compound 0.316 µM, first compound 0.00949 µM
[13] = second compound 0.316 µM, first compound 0.03 µM
[14] = second compound 0.316 µM, first compound 0.0949 µM
[15] = second compound 0.316 µM, first compound 0.3 µM
[16] = second compound 0.316 µM, first compound 0.949 µM
[17] = second compound 0.316 µM, first compound 3 µM
[18] = second compound 1 µM, first compound 0.00949 µM
[19] = second compound 1 µM, first compound 0.03 µM
[20] = second compound 1 µM, first compound 0.0949 µM
[21] = second compound 1 µM, first compound 0.3 µM
[22] = second compound 1 µM, first compound 0.949 µM
[23] = second compound 1 µM, first compound 3 µM
[24] = second compound 3.16 µM, first compound 0.00949 µM
[25] = second compound 3.16 µM, first compound 0.03 µM
[26] = second compound 3.16 µM, first compound 0.0949 µM
[27] = second compound 3.16 µM, first compound 0.3 µM
[28] = second compound 3.16 µM, first compound 0.949 µM
[29] = second compound 3.16 µM, first compound 3 µM
[30] = second compound 10 µM, first compound 0.00949 µM
[31] = second compound 10 µM, first compound 0.03 µM
[32] = second compound 10 µM, first compound 0.0949 µM
[33] = second compound 10 µM, first compound 0.3 µM
[34] = second compound 10 µM, first compound 0.949 µM
[35] = second compound 10 µM, first compound 3 µM
[36] = second compound 0.1 µM, first compound 0.0316 µM
[37] = second compound 0.1 µM, first compound 0.1 µM
[38] = second compound 0.316 µM, first compound 0.0316 µM
[39] = second compound 0.316 µM, first compound 0.1 µM
[40] = second compound 1 µM, first compound 0.0316 µM
[41] = second compound 1 µM, first compound 0.1 µM
[42] = second compound 3.16 µM, first compound 0.0316 µM
[43] = second compound 3.16 µM, first compound 0.1 µM
[44] = second compound 10 µM, first compound 0.0316 µM
[45] = second compound 10 µM, first compound 0.1 µM
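Further: spheroids exposed to agents for seven days before reading.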

IC50 [1]: > 3 µM
IC50 [2]: > 3 µM
IC50 [3]: > 3 µM
IC50 [4]: > 3 µM
IC50 [5]: < 0.00949 µM
SMILES: CCN(c1cc(-c2ccc(CN3CCOCC3)cc2)cc(C(=O)NCc2c(C)cc(C)[nH]c2=O)c1C)C1CCOCC1 + Cc1cncc(-c2nc(NCCc3c[nH]c4ccccc34)c3ncn(C(C)C)c3n2)c1
viability, T/C [6]: 99.1%
viability, T/C [7]: 101%
viability, T/C [8]: 76%
viability, T/C [9]: 82.3%
viability, T/C [10]: 95.6%
viability, T/C [11]: 90.3%
viability, T/C [12]: 108%
viability, T/C [13]: 109%
viability, T/C [14]: 94.6%
viability, T/C [15]: 100%
viability, T/C [16]: 106%
viability, T/C [17]: 94.6%
viability, T/C [18]: 80.3%
viability, T/C [19]: 79.6%
viability, T/C [20]: 75.7%
viability, T/C [21]: 78.6%
viability, T/C [22]: 80.5%
viability, T/C [23]: 84%
viability, T/C [24]: 76.4%
viability, T/C [25]: 76.9%
viability, T/C [26]: 82.4%
viability, T/C [27]: 89.5%
viability, T/C [28]: 73.2%
viability, T/C [29]: 76%
viability, T/C [30]: 16.1%
viability, T/C [31]: 21%
viability, T/C [32]: 9.73%
viability, T/C [33]: 10.7%
viability, T/C [34]: 16.7%
viability, T/C [35]: 3.73%

IC50 (compound alone, run of 07/18/2022): 4.98 µM [middle of 23 runs]
SMILES: Cc1cncc(-c2nc(NCCc3c[nH]c4ccccc34)c3ncn(C(C)C)c3n2)c1
viability, T/C (compound 0.1 µM): 96.2% [middle of 20 runs]
viability, T/C (compound 0.316 µM): 86.2% [middle of 19 runs]
viability, T/C (compound 1 µM): 78.4% [middle of 20 runs]

IC50 [1]: > 3 µM
IC50 [2]: > 3 µM
IC50 [3]: > 3 µM
IC50 [4]: > 3 µM
IC50 [5]: 2.59 µM
SMILES: O=C(C=Cn1cnc(-c2cc(C(F)(F)F)cc(C(F)(F)F)c2)n1)NNc1cnccn1 + CC(CO)NC(=O)c1cc(-c2ccc(Cl)cc2)nn(-c2cnn(C)c2)c1=O
viability, T/C [6]: 92.4%
viability, T/C [7]: 102%
viability, T/C [8]: 92.2%
viability, T/C [9]: 95.1%
viability, T/C [10]: 82.3%
viability, T/C [11]: 59.6%
viability, T/C [12]: 93.8%
viability, T/C [13]: 89.6%
viability, T/C [14]: 101%
viability, T/C [15]: 99.7%
viability, T/C [16]: 58.9%
viability, T/C [17]: 68.4%
viability, T/C [18]: 79.7%
viability, T/C [19]: 101%
viability, T/C [20]: 93.9%
viability, T/C [21]: 76.5%
viability, T/C [22]: 59.1%
viability, T/C [23]: 56.1%
viability, T/C [24]: 91.3%
viability, T/C [25]: 97%
viability, T/C [26]: 84.9%
viability, T/C [27]: 99%
viability, T/C [28]: 62.7%
viability, T/C [29]: 56.6%
viability, T/C [30]: 93.1%
viability, T/C [31]: 87.2%
viability, T/C [32]: 71.8%
viability, T/C [33]: 106%
viability, T/C [34]: 82%
viability, T/C [35]: 44.5%

IC50 [1]: > 0.1 µM
IC50 [2]: > 0.1 µM
IC50 [3]: > 0.1 µM
IC50 [4]: > 0.1 µM
IC50 [5]: > 0.1 µM
SMILES: Cn1ncnc1C1c2n[nH]c(=O)c3cc(F)cc(c23)NC1c1ccc(F)cc1 (stereo not given) + Cc1ccccc1N=Nc1ccc(NC(=O)c2ccnn2C)c(C)c1
viability, T/C (second compound 0.1 µM, first compound 0.000316 µM): 104%
viability, T/C (second compound 0.1 µM, first compound 0.001 µM): 107%
viability, T/C (second compound 0.1 µM, first compound 0.00316 µM): 110%
viability, T/C (second compound 0.1 µM, first compound 0.01 µM): 110%
viability, T/C [36]: 99.2%
viability, T/C [37]: 106%
viability, T/C (second compound 0.316 µM, first compound 0.000316 µM): 93%
viability, T/C (second compound 0.316 µM, first compound 0.001 µM): 105%
viability, T/C (second compound 0.316 µM, first compound 0.00316 µM): 106%
viability, T/C (second compound 0.316 µM, first compound 0.01 µM): 101%
viability, T/C [38]: 95.8%
viability, T/C [39]: 94.7%
viability, T/C (second compound 1 µM, first compound 0.000316 µM): 108%
viability, T/C (second compound 1 µM, first compound 0.001 µM): 113%
viability, T/C (second compound 1 µM, first compound 0.00316 µM): 103%
viability, T/C (second compound 1 µM, first compound 0.01 µM): 101%
viability, T/C [40]: 99%
viability, T/C [41]: 109%
viability, T/C (second compound 3.16 µM, first compound 0.000316 µM): 95.6%
viability, T/C (second compound 3.16 µM, first compound 0.001 µM): 102%
viability, T/C (second compound 3.16 µM, first compound 0.00316 µM): 90.3%
viability, T/C (second compound 3.16 µM, first compound 0.01 µM): 97.2%
viability, T/C [42]: 94.9%
viability, T/C [43]: 99.2%
viability, T/C (second compound 10 µM, first compound 0.000316 µM): 109%
viability, T/C (second compound 10 µM, first compound 0.001 µM): 110%
viability, T/C (second compound 10 µM, first compound 0.00316 µM): 109%
viability, T/C (second compound 10 µM, first compound 0.01 µM): 98.7%
viability, T/C [44]: 89.8%
viability, T/C [45]: 98.9%

IC50 (curve of compound): > 10 µM
SMILES: O=C(c1cc(Cc2n[nH]c(=O)c3ccccc23)ccc1F)N1CCN(C(=O)C2CC2)CC1
viability, T/C (compound 0.0316 µM): 103% and 99.9% and 91.7%
viability, T/C (compound 0.1 µM): 97.6% and 103% and 104%
viability, T/C (compound 0.316 µM): 97.3% and 100% and 107%
viability, T/C (compound 1 µM): 108% and 113% and 102%
viability, T/C (compound 3.16 µM): 108% and 92.6% and 99.9%
viability, T/C (compound 10 µM): 93.2% and 85.1% and 76.2%

IC50 [1]: 4.49 µM
IC50 [2]: 5.32 µM
IC50 [3]: 3.76 µM
IC50 [4]: 3.43 µM
IC50 [5]: 1.62 µM
SMILES: COc1cccc2c1C(=O)c1c(O)c3c(c(O)c1C2=O)CC(O)(C(=O)CO)CC3OC1CC(N)C(O)C(C)O1 (stereo not given) + CC(CO)NC(=O)c1cc(-c2ccc(Cl)cc2)nn(-c2cnn(C)c2)c1=O
viability, T/C [36]: 103%
viability, T/C [37]: 104%
viability, T/C (second compound 0.1 µM, first compound 0.316 µM): 87.8%
viability, T/C (second compound 0.1 µM, first compound 1 µM): 78.3%
viability, T/C (second compound 0.1 µM, first compound 3.16 µM): 58.3%
viability, T/C (second compound 0.1 µM, first compound 10 µM): 31.8%
viability, T/C [38]: 98.3%
viability, T/C [39]: 100%
viability, T/C (second compound 0.316 µM, first compound 0.316 µM): 90.4%
viability, T/C (second compound 0.316 µM, first compound 1 µM): 81.6%
viability, T/C (second compound 0.316 µM, first compound 3.16 µM): 65.1%
viability, T/C (second compound 0.316 µM, first compound 10 µM): 32.5%
viability, T/C [40]: 96.7%
viability, T/C [41]: 111%
viability, T/C (second compound 1 µM, first compound 0.316 µM): 98.4%
viability, T/C (second compound 1 µM, first compound 1 µM): 70.7%
viability, T/C (second compound 1 µM, first compound 3.16 µM): 58.9%
viability, T/C (second compound 1 µM, first compound 10 µM): 27.1%
viability, T/C [42]: 85.6%
viability, T/C [43]: 99.2%
viability, T/C (second compound 3.16 µM, first compound 0.316 µM): 88.7%
viability, T/C (second compound 3.16 µM, first compound 1 µM): 57.6%
viability, T/C (second compound 3.16 µM, first compound 3.16 µM): 59.3%
viability, T/C (second compound 3.16 µM, first compound 10 µM): 27%
viability, T/C [44]: 90.5%
viability, T/C [45]: 76.1%
viability, T/C (second compound 10 µM, first compound 0.316 µM): 72.8%
viability, T/C (second compound 10 µM, first compound 1 µM): 58%
viability, T/C (second compound 10 µM, first compound 3.16 µM): 40.3%
viability, T/C (second compound 10 µM, first compound 10 µM): 6.01%

IC50 (curve of compound): > 10 µM and 5.81 µM
SMILES: COc1cccc2c1C(=O)c1c(O)c3c(c(O)c1C2=O)CC(O)(C(=O)CO)CC3OC1CC(N)C(O)C(C)O1 (stereo not given)
viability, T/C (compound 0.0316 µM): 98% and 91.4% and 90.8%
viability, T/C (compound 0.1 µM): 85.2% and 85.3% and 89.7%
viability, T/C (compound 0.316 µM): 90.2% and 92.3% and 93.3%
viability, T/C (compound 1 µM): 97.9% and 97.3% and 87.4%
viability, T/C (compound 3.16 µM): 66.9% and 78% and 60.5%
viability, T/C (compound 10 µM): 60% and 71.6% and 40.6%

IC50 (curve of compound): 0.632 µM and 0.486 µM and 0.266 µM
SMILES: NS(=O)(=O)OCC1CC(n2ccc3c(NC4CCc5ccccc54)ncnc32)CC1O (stereo not given)
viability, T/C (compound 0.0316 µM): 101% (2×) and 105%
viability, T/C (compound 0.1 µM): 107% and 91.4% and 77.7%
viability, T/C (compound 0.316 µM): 98.2% and 66% and 47.5%
viability, T/C (compound 1 µM): 18.1% and 25.5% and 14%
viability, T/C (compound 3.16 µM): 5.89% and 5.66% and 5.16%
viability, T/C (compound 10 µM): 3% and 4.4% and 2.68%
